Test results from article PMC6145916, “Interaction of mitochondrial fission factor with dynamin related protein 1 governs physiological mitochondrial function in vivo” (Scientific Reports, 2018).
Where no end group is shown, it is not given here.

Assays:
SH-SY5Y cells = test: Mitochondrial ROS (MitoSox Red), SH-SY5Y; format: cell-based, human; conditions: overnight treatment, normalized to no peptide; 3 independent experiments
Protocol: Represented Western blot is cropped from a full blot shown in the Expanded Western Blots section of the Supplementary Information. […] Hoechst 33342 is shown in blue and Tom20 in green (n = 3, 10 images each). Below, quantification of the form factor (degree of branching) and major axis length (length of mitochondria). At least 6,000 mitochondrial fragments were measured for each condition. Mitochondrial reactive oxygen species (ROS) production (MitoSox Red) (c) and mitochondrial membrane potential (TMRM) (d) after overnight treatment with indicated concentrations of peptide or FCCP. Data are from 3 independent experiments per condition normalized to the average no peptide value. (e) Relative mitochondrial ROS (MitoSox Red) signal in GFP positive cells expressing full-length or alanine-substituted P259 at indicated amino acids after two days of transfection. Values are normalized to a GFP empty vector (n = 3, with 3 replicates). […] Data are mean ± s.e.
(§1) Following treatment, cells were washed with treatment media.
The Cy5 filter was used to autofocus on the mitochondria plane. […] MitoROS was calculated as the average MitoSox signal per cell. The mitochondrial membrane potential was calculated as the average TMRM signal in the mitochondrial mask. […]
(§2) calculated as the average MitoSox signal per cell. […]

wild-type MEFs = test: Mitochondrial ROS (MitoSox), WT MEFs; format: cell-based, mouse; conditions: 4 µM P259 daily for three days, vs no peptide; 3 independent experiments, three technical replicates; *** p <0.001
Description: Data are of 3 independent experiments with the whiskers calculated by the Turkey method. e. […]
production in an Mff -dependent manner. Mitochondrial reactive oxygen species production […]
treatment in each cell line. […]
determined by an unpaired, two -tailed t test). g. […]
control (no peptide treatment). Data are mean ± s.e. from 3 independent experiments.
(§3) Mitochondrial reactive oxygen species determination […]
and 1% penicillin-streptomycin solution (Corning, NY, USA). […]
(§4) and without phenol red. […] After incubation
(§5) HEPES, and without phenol red. […]
epifluorescence microscope with a 10X objective (Keyence). The Cy5 filter (Keyence) was used to autofocus on the mitochondria plane. […]
as §2

primary cortical neurons = test: Mitochondrial ROS (MitoSox Red), primary cortical neurons; format: cell-based, rat; conditions: overnight treatment; n = 3, with 3 replicates
Protocol: Bottom, quantification of the form factor (degree of branching) and aspect ratio (major/minor axis length). At least 10,000 mitochondrial fragments were analyzed for each condition. Mitochondrial reactive oxygen species production (MitoSox Red) (b) and membrane potential (TMRM) (c) after overnight treatment with indicated concentrations of peptide (n = 3, with 3 replicates). […] Overlay of live microscopy imaging at time 0 (green) and 150 (red) seconds. […] An estimation of the % mobile mitochondria from the Pearson coefficient of each set of images. Data are mean ± s.e.
as §1
The Cy5 filter was used to autofocus on the mitochondria plane. Nuclei were imaged with a DAPI filter and the mitoROS (MitoSox) or membrane potential (TMRM) image was acquired with a TRITC filter. […] MitoROS was calculated as the average MitoSox signal per cell. The mitochondrial membrane potential was calculated as the average TMRM signal in the mitochondrial mask.
as §3
and 1% penicillin-streptomycin solution (Corning, NY, USA). Primary cortical neurons were treated with increasing concentrations of peptides in NbActiv1 media. HD Patient- and adult- […]
as §4, §5, §2

[1] = system: fission and fusion proteins; test: Expression of fission and fusion proteins, mitochondrial content and mitophagy in brain of wild-type mice; format: in vivo, mouse; conditions: 3 mg/Kg/day, subcutaneous osmotic pump, 8 weeks, WT mice
Protocol: Five-week old R6/2 HD mice and their wild-type littermates (a total of 60 mice) were implanted subcutaneously with a 28-d Alzet osmotic pump with either P259-TAT or TAT control peptide (15 mice per group) to be delivered continuously at a rate of 3 mg/Kg/day, as previously described. All mice were implanted twice for a total of an 8-week treatment. 20 of the WT mice were implanted 3 times for a total of a 12-week treatment at 3 mg/Kg/day. All the experiments were in accordance with protocols approved by the Institutional Animal Care and Use Committee of Stanford University and were performed based on the National Institutes of Health Guide for the Care and Use of Laboratory Animals. All methods were carried out in accordance with the relevant guidelines and regulations. […]
membrane in brains of wild-type mice, while not affecting expression levels of other fission and fusion machinery proteins. Total lysate (a,c) and mitochondrial fraction (b) from brain […]
Represented western blots are cropped from full blots shown in the Expanded Western Blots section of the Supplementary Information. […]
Supplementary Figure 4. Principal component analysis of behaviors from wild-type mice treated with P259. a. The top 20% of behaviors collected from wild-type mice treated with 3 […]
ANOVA F- and mutual information scores for each behavior (week designation corresponds to mouse age when the behavior was observed). b. The eigenvector of the first principal component, representing 42% of the variation of the data. […]
finally washed three times with RIPA buffer. Finally, beads were resuspended in 20 µL of Laemmli […]
The effect of peptides on GTPase activity of Drp1 was measured by incubating recombinant Drp1 […]
for 1 hour at 37 °C. GTPase activity was measured using a colorimetric GTPase assay kit (Novus Biologicals, CO, USA) as instructed by the manufacturer. […]

## YGRKKRRQRRRGSGIIQLPEIVVV-NH2 (C-terminus assumed) [P259]
SH-SY5Y cells
  mitochondrial ROS levels: increase in mitochondrial reactive oxygen species (ROS) levels
wild-type MEFs
  mitochondrial ROS production, WT MEFs: increases mitochondrial ROS
Primary cortical neurons
  mitochondrial ROS: increased mitochondrial ROS
[1]
  expression levels of both fission and fusion proteins: no effect
  mitophagy: no effect
  overall mitochondrial content: no effect
